Reference: US20100298377A1, “NOVEL SUBSTITUTED INDAZOLES, THE PREPARATION THEREOF AND USE OF SAME IN THERAPEUTICS” (SANOFI-AVENTIS, priority 2007, published 2010)

Tests used:
[1] = system: MEF-IGF1 murine fibroblast cells; test: IGF1-dependent proliferation of MEF-IGF1 cells via incorporation of [14C]-thymidine; format: cell-based; conditions: Mus musculus, Fibroblast; [14C]-thymidine incorporation, IGF1 stimulated, 72 hours; read-out: IC50 MEF-IGF
From the text: a. Study of the IGF1-Dependent Proliferation of MEF-IGF1 Murine Fibroblast Cells Measured via Incorporation of [14C]-Thymidine
This test is based on the incorporation of [^14C]-thymidine into the DNA of the cells for the S phase of the cell cycle during cell division. The cell line used in this test is the MEF/3T3 Tet-Off Clone 18 line obtained by stable transfection of the human receptor IGF1R in murine MEF/3T3 Tet-Off fibroblasts. To measure the IGF1-dependent cell proliferation, the cells were deprived of serum and cultured for 3 days in the serum-free culture medium in the presence of the growth factor IGF1 which stimulates the proliferation of MEF-IGF1 cells.
Test of Incorporation of [^14C]-Thymidine into MEF-IGF1 Cells
On day 1, the cells were inoculated with 7500 cells per well in Cytostar 96-well microplates (Amersham (GE) RPNQ0162) in 200 μl of EMEM medium (EMEM, Biowhittaker, #BE12-662F) containing 10% foetal calf serum (FCS, TET-BD Biosciences Tet System Approved FBS US-Sourced, #8630-1) and 1% PSG (Penicillin-Streptomycin-Glutamine (PSG), Gibco #10378-016), and incubated at 37° C., 5% CO2, for 24 hours. On day 2, the cells were washed in the FCS-free EMEM culture medium containing 1% PSG, and incubated in 170 μl of this serum-free culture medium at 37° C., 5% CO2, for 24 hours. On day 3, the cells were incubated with 10 μl of IGF1 (2 μg/ml of final concentration; recombinant human IGF-1, R & D Systems, #291-G1), 10 μl (0.1 μCi) of [^14C]-Thymidine (NEN NEC-568) plus 10 μl of increasing concentrations of the test molecules, diluted in dimethyl sulfoxide (DMSO, Sigma D2650). The molecules were added in a volume of 10 μl of a 20-fold concentrated solution in a final volume of 200 μl, the final percentage of DMSO being 0.1%. The treated cells were incubated at 37° C., 5% CO2, for 72 hours. The incorporation of [^14C]-Thymidine was quantified in cpm units (counts per minute) by counting the radioactivity 72 hours after the start of the treatment, using a Micro-Beta radioactivity counter (Perkin-Elmer). The tests were performed in duplicate.
(§1) i) the mean±s.e.m. of each series of well replicates was calculated;
ii) the background noise is calculated by preparing cell-free, IGF1-free and untreated control wells; this control was performed in 4 replicates. The background noise was removed at each measurement;
iii) the maximum response is given by positive control wells containing cells in the presence of IGF1 but untreated; this control was performed in 4 replicates;
iv) the minimum response is given by negative control wells containing IGF1-free and untreated cells; this control was performed in 4 replicates;
(§2) The IC50 values were calculated by […] with the XLfit software (IDBS, UK) using formula 205.

[2] = system: MIA PaCa-2 cells (human pancreatic carcinoma cells); test: Proliferation of MIA PaCa-2 cells, intracellular ATP, CellTiter-Glo test; format: cell-based; conditions: 96 hours
From the text: b. Study of the Proliferation of Human Tumoral MIA PaCa-2, C-433, LnCaP and MCF7 Cells via Assay of the Intracellular ATP Using the Celltiter-Glo™ Test
The kit CellTiter-Glo™ for measuring cell viability via luminescence ([…]) is a homogeneous method for determining the number of viable cells in culture, based on quantification of the ATP present in the cells, and which indicates the presence of metabolically active cells.
The cell lines used in this test were the following: MIA PaCa-2 cells (human pancreatic carcinoma cells, ATCC, CRL-1420), C-433 cells (human Ewing sarcoma cells, DSMZ, ACC 268), LNCaP clone FGC cells (human prostate carcinoma cells, ATCC, CRL-1740), MCF7 cells (human breast carcinoma cells, ECACC, #86012803). The cells MIAPaCa-2 and LNCaP were cultured in D-MEM culture medium (Invitrogen Gibco, #419656-039) containing 10% foetal calf serum (FCS, Invitrogen Gibco, #10500-064) and 2 mM L-Glutamine (Invitrogen Gibco, #25030-024); the C-433 cells were cultured in MCCoy's 5A culture medium (Invitrogen Gibco, #26600-023)/RPMI 1640 (Invitrogen Gibco, #31870-025) (50/50) containing 10% FCS and 2 mM L-glutamine; the MCF7 cells were cultured in EMEM culture medium (EMEM, Biowhittaker, Lonza, #BE12-662F) containing 10% FCS and 2 mM L-Glutamine.
Evaluation of the Cell Viability via Luminescence Measurement: Celltiter-Glo™ Test
On day 1, the cells were inoculated at 1000 (C-433), 2500 (MCF7) and 10000 (LNCaP and MIA PaCa-2) cells per well in black-bottomed 96-well microplates (NUNC fluoronunc, Fisherbioblock 2311K) in 135 μl of whole culture medium and incubated at 37° C., 5% CO2, for 3 to 6 hours. The cells were then incubated with increasing concentrations of molecules diluted in dimethyl sulfoxide (DMSO, Sigma D2650). The molecules were added in a volume of 15 μl of a 10-fold concentrated solution in a final volume of 150 μl, the final percentage of DMSO being 0.1%. The cells were incubated at 37° C., 5% CO2, for 96 hours. After 4 days of treatment with the molecules, the CellTiter-Glo™ was performed by following the manufacturer's instructions (Kit Celltiter-Glo Luminescent, PROMEGA #G7571). Briefly, the cell plates were equilibrated for about 30 minutes at RT and 100 μl per well of Celltiter-Glo reagent were added. The cells were incubated for 1 hour at RT for lysis of the cells and stabilization of the signal. The intracellular ATP was quantified by measuring the luminescence in rlu units (relative luminescence units), 96 hours after initiation of the treatment, using a luminescence counter (Wallac). The tests were performed in six replicates.
as §1
ii) the maximum response is given by positive control wells containing untreated cells; this control was performed in 12 replicates;
iii) the minimum response is given by cell-free and untreated negative control wells; this control was performed in 6 replicates;
iv) using these maximum (100%) and minimum (0%) response values, respectively, the data were normalized to give a percentage relative to the maximum response;
as §2

Question: Which results are given for `O=C(Nc1ccc2[nH]ncc2c1)N[C@@H](c1cc(F)cc(Cl)c1)[C@@H]1CCCCN1` [Ex 3, 1-{(S)-(3-Chloro-5-fluorophenyl)[(2S)-piperid-2-yl]methyl}-3-(1H-indazol-5-yl)urea]?
Answer: IC50 [1]: 790 nM; IC50 [2]: 10000 nM

Question: How did the IC50 [1] turn out when `O=C(Nc1ccc2[nH]ncc2c1)N[C@@H](c1ccc(Cl)c(Cl)c1)[C@@H]1CCCCN1` [Ex 4, 1-{(S)-(3,4-Dichlorophenyl)[(2S)-piperid-2-yl]methyl}-3-(1H-indazol-5-yl)urea] was run?
Answer: 500 nM

Question: And the IC50 [2]?
Answer: 3420 nM

Question: What does the source list for `O=C(Nc1ccc2[nH]ncc2c1)NC(c1cc(F)cc(Cl)c1)C1CCCCN1` (stereo not shown) [Ex 5, 1-[(3-Chloro-5-fluorophenyl)(piperid-2-yl)methyl]-3-(1H-indazol-5-yl)urea]?
Answer: IC50 [1]: < 100 nM; IC50 [2]: 7100 nM

Question: `CN1CCCCC1C(NC(=O)Nc1ccc2[nH]ncc2c1)c1cc(F)cc(Cl)c1` (stereo not shown) [Ex 11, 1-[(3-Chloro-5-fluorophenyl)(1-methylpiperid-2-yl)methyl]-3-(1H-indazol-5-yl)urea] was tested. Which IC50 [1] did it give?
Answer: 2920 nM

Question: What about the IC50 [2] of the same compound?
Answer: > 10000 nM

Question: `CN1CCCCC1C(NC(=O)Nc1ccc2[nH]nc(-c3ccncc3)c2c1)c1ccccc1` [Ex 13, 1-[(1-Methylpiperid-2-yl)(phenyl)methyl]-3-(3-pyrid-4-yl-1H-indazol-5-yl)urea((S,2S),(R,2R))] was tested. Which IC50 [1] did it give?
Answer: 5120 nM

Question: What about the IC50 [2] of the same compound?
Answer: 1450 nM

Question: How did the IC50 [1] turn out when `Cc1n[nH]c2ccc(NC(=O)NC(c3ccccc3)C3CCCCN3C)cc12` [Ex 18, 3-Methyl-5-({[(1-methylpiperid-2-yl)(phenyl)methyl]carbamoyl}amino)-1H-indazole ((S,2S),(R,2R))] was run?
Answer: 290 nM

Question: And the IC50 [2]?
Answer: 6100 nM

Question: With `CN1CCCCC1C(NC(=O)Nc1cc(F)c2[nH]ncc2c1)c1ccccc1` [Ex 21, 1-(7-Fluoro-1H-indazol-5-yl)-3-[(1-methylpiperid-2-yl)(phenyl)methyl]urea((S,2S),(R,2R))] as the compound, how does the IC50 [1] read?
Answer: 2820 nM

Question: For `CN1CCCCC1C(NC(=O)Nc1ccc2[nH]nc(C#Cc3ccc(F)cc3)c2c1)c1ccccc1` [Ex 24, 1-{3-[(4-Fluorophenyl)ethynyl]-1H-indazol-5-yl}-3-[(1-methylpiperid-2-yl)(phenyl)methyl]urea((S,2S),(R,2R))], which IC50 [1] is on record?
Answer: 860 nM

Question: And the IC50 [2]?
Answer: 1300 nM

Question: Which IC50 [1] does the source give for `CN1CCCCC1C(NC(=O)Nc1ccc2[nH]nc(C#Cc3cccnc3)c2c1)c1ccccc1` [Ex 25, 1-[(1-Methylpiperid-2-yl)(phenyl)methyl]-3-[3-(pyrid-3-ylethynyl)-1H-indazol-5-yl]urea((S,2S),(R,2R))] here?
Answer: 366 nM

Question: Which IC50 [1] does the source give for `S=C(Nc1ccc2[nH]ncc2c1)N[C@@H](c1ccc(Cl)c(Cl)c1)[C@@H]1CCCCN1` [Ex 31, 1-{(S)-(3,4-Dichlorophenyl)[(2S)-piperid-2-yl]methyl}-3-(1H-indazol-5-yl)thiourea] here?
Answer: 1270 nM

Question: What about the IC50 [2] of the same compound?
Answer: 6250 nM

Question: Which IC50 [1] does the source give for `O=C(Nc1ccc2[nH]ncc2c1)OC(c1cc(Cl)cc(Cl)c1)C1CCCCN1` [Ex 34, (3,5-Dichlorophenyl)[piperid-2-yl]methyl 1H-indazol-5-ylcarbamate((S,2S),(R,2R))] here?
Answer: 600 nM

Question: What about the IC50 [2] of the same compound?
Answer: 2910 nM

Question: Which IC50 [1] does the source give for `O=C(Nc1ccc2[nH]ncc2c1)O[C@@H](c1cc(F)cc(Cl)c1)[C@@H]1CCCCN1` [Ex 35, (S)-(3-Chloro-5-fluorophenyl)[(2S)-piperid-2-yl]methyl 1H-indazol-5-ylcarbamate] here?
Answer: 560 nM

Question: And the IC50 [2]?
Answer: 3100 nM

Question: What does the source list for `CN1CCCCC1C(OC(=O)Nc1ccc2[nH]ncc2c1)c1cc(F)cc(Cl)c1` (stereo not shown) [Ex 36, (3-Chloro-5-fluorophenyl)(1-methylpiperid-2-yl)methyl 1H-indazol-5-ylcarbamate]?
Answer: IC50 [1]: 770 nM; IC50 [2]: 10000 nM

Question: For `O=C(Nc1ccc2[nH]ncc2c1)O[C@H](c1ccc(Cl)c(Cl)c1)[C@H]1CCCCN1` [Ex 37, (R)-(3,4-Dichlorophenyl)[(2R)-piperid-2-yl]methyl 1H-indazol-5-ylcarbamate], which IC50 [1] is on record?
Answer: 278 nM

Question: And the IC50 [2]?
Answer: 2450 nM

Question: Which IC50 [1] does the source give for `O=C(Nc1ccc2[nH]ncc2c1)O[C@@H](c1ccc(Cl)c(Cl)c1)[C@@H]1CCCCN1` [Ex 38b, (S)-(3,4-Dichlorophenyl)[(2S)-piperid-2-yl]methyl 1H-indazol-5-ylcarbamate] here?
Answer: 963 nM

Question: For `O=C(Nc1ccc2[nH]ncc2c1)O[C@@H](c1cccc(Br)c1)[C@@H]1CCCCN1` [Ex 46], which IC50 [1] is on record?
Answer: 546 nM
